Results: paper PMC8764084, “Pantothenate biosynthesis is critical for chronic infection by the neurotropic parasite Toxoplasma gondii” (Nature Communications, 2022)

Molecular target: T1, PBAL (pantoate β-alanine ligase; Pan synthetase) (Toxoplasma gondii, UniProt S8EZ77)
T1 construct: gene TGME49_265870; native full-length enzyme in live tachyzoites, untagged; about 88 kDa; nuclear; compared with pbal-ko
Experiment: LC-MS isotope labelling of pantothenate in live parasites, RH versus pbal-ko
Type: cell-based
Details: 0.8 mM pantoate with 0.8 mM 13C3/15N-beta-alanine, medium without Pan, 40 h, intact parasites in HFF

T1 sequence (S8EZ77 entry or part of it): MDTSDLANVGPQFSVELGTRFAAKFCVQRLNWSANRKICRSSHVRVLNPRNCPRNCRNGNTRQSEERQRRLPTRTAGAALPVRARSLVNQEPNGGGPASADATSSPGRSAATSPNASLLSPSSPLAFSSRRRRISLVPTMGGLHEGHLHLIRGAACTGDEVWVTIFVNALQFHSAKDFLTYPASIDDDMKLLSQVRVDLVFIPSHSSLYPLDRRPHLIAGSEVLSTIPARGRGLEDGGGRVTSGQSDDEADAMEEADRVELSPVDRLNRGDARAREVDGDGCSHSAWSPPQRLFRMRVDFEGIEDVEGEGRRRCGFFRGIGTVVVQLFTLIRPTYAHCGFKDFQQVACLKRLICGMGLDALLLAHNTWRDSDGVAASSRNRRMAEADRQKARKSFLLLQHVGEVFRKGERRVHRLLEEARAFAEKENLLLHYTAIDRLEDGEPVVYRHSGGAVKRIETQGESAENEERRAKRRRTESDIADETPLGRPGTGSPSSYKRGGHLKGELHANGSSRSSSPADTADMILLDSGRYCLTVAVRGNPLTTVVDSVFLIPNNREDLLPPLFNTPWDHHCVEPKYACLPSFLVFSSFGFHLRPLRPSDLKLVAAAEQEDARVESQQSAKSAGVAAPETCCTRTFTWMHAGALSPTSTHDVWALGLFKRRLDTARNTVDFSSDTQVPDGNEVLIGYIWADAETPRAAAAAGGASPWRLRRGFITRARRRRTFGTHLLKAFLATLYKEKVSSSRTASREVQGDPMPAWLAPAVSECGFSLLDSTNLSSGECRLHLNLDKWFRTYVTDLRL

SMILES	LC-MS isotope labelling of pantothenate in live parasites, RH versus pbal-ko	LC-MS isotope labelling of pantothenate in live parasites, RH versus pbal-ko (labelled compound)
CC(C)(CO)[C@@H](O)C(=O)O [pantoate]	led to the formation of labeled Pan in all strains except pbal-ko	–
NCCC(=O)O [13C3/15N-β-Ala]	–	led to the formation of labeled Pan in all strains except pbal-ko
